Assay results from ChEMBL document CHEMBL4808229, “Privileged scaffolds in medicinal chemistry: Studies on pyrazolo[1,5-a]pyrimidines on sulfonamide containing Carbonic Anhydrase inhibitors” (Bioorg Med Chem Lett, 2021).

Molecular target: Carbonic anhydrase 9 (Homo sapiens, UniProt Q16790)
Assay: Inhibition of recombinant human carbonic anhydrase 9 by stopped-flow CO2 hydration assay

Row | SMILES | Ki [µM]
1 | CCOC(=O)c1cnc2c(NC(=S)Nc3cccc(S(N)(=O)=O)c3)cnn2c1C | 0.312
2 | CCOC(=O)c1cnc2c(NC(=O)NCc3ccc(S(N)(=O)=O)cc3)cnn2c1C | 0.0097
3 | CCOC(=O)c1cnc2c(NC(=S)Nc3ccc(S(N)(=O)=O)cc3)cnn2c1C | 0.68
4 | Cc1c(C(=O)O)cnc2c(NC(=O)c3ccc(S(N)(=O)=O)cc3)cnn12 | 0.142
5 | Cc1c(C(=O)O)cnc2c(NC(=O)Nc3cccc(S(N)(=O)=O)c3)cnn12 | 0.523
6 | Cc1c(C(=O)O)cnc2c(NC(=O)NCCc3ccc(S(N)(=O)=O)cc3)cnn12 | 0.212
7 | CCOC(=O)c1cnc2c(NC(=O)c3ccc(S(N)(=O)=O)cc3)cnn2c1C | 0.142
8 | CCOC(=O)c1cnc2c(NC(=O)N/C=C/c3ccc(S(N)(=O)=O)cc3)cnn2c1C | 0.843

The remaining compounds from weak to strong by Ki, led by results:

Row | Ki [µM] | SMILES
9 | 0.975 | CCOC(=O)c1cnc2c(NC(=O)NCCc3ccc(S(N)(=O)=O)cc3)cnn2c1C
10 | 0.919 | CCOC(=O)c1cnc2c(NC(=S)NCCc3ccc(S(N)(=O)=O)cc3)cnn2c1C
11 | 0.851 | Cc1c(C(=O)O)cnc2c(NC(=O)Nc3ccc(S(N)(=O)=O)cc3)cnn12
12 | 0.703 | Cc1c(C(=O)O)cnc2c(NC(=O)NCc3ccc(S(N)(=O)=O)cc3)cnn12
13 | 0.023 | CCOC(=O)c1cnc2c(NC(=S)NCc3ccc(S(N)(=O)=O)cc3)cnn2c1C
14 | 0.0065 | CCOC(=O)c1cnc2c(NC(=O)c3ccc(Cl)c(S(N)(=O)=O)c3)cnn2c1C
